Measured values reported in patent publication US20100210602A1, “PhoU (PerF), A P[…] INVOLVED IN [sequence] FORMATION AND TOLERANCE TO MULTIPLE ANTIBIOTICS AND [sequence] AS A DRUG TARGET FOR [sequence] BACTERIA” (priority 2006, published 2010).

Target: T1, PhoU (Escherichia coli, UniProt P0A9K7)
T1 construct: His; made in house
Experiment: PhoU phosphatase substrate specificity
Assay type: biochemical, E. coli
Conditions: pH5, pH7 and pH8
Procedure: Different substrates for the PhoU phosphatase activity were tested. […] For PhoU, the substrates acetyl-P, carbamoyl-P, imido-di phosphate (imido-di-P), r-nitrophenyl phosphate (rNPP), β-Nicotinamide adenine dinucleotide phosphate (NADP), Glucose-1,6-bisphosphate (Glucose-1,6-bisP) were tested at pH5, pH7, and pH8 condition, as potential PhoU phosphatase activity.

T1 sequence (P0A9K7 whole entry): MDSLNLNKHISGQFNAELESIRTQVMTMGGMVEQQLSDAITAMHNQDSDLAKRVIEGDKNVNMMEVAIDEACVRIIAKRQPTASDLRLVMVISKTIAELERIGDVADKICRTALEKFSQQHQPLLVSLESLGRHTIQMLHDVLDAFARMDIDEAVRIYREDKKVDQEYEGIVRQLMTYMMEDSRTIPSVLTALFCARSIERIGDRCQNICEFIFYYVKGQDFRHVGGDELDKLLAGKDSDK

| SMILES | rank as PhoU phosphatase substrate |
| --- | --- |
| CC(=O)OP(=O)(O)O [acetyl-P, acetyl phosphate] | acetyl-P>rNPP>carbamoyl-P>Glucose-1,6-bisP>NADP |
| O=[N+]([O-])c1ccc(OP(=O)(O)O)cc1 [rNPP, r-nitrophenyl phosphate] | acetyl-P>rNPP>carbamoyl-P>Glucose-1,6-bisP>NADP |
